For nine molecules, melting point results are on record in US6537995B2, “Heterocyclic carboxamides” (Pfizer Inc., priority 1998, dated 2003).

Consider `CN1CCN(c2ccccc2-c2ccc(C(=O)NCc3ccc(Cl)cc3)[nH]2)CC1.Cl`, for which the melting point is 80 °C (dec.). As to `CN1CCN(c2ccccc2-c2ccc(C(=O)Nc3ccc(Cl)cc3)s2)CC1.Cl`, the melting point was 149 °C (dec.).

`COc1ccc(CNC(=O)c2ccc(-c3ccccc3N3CCN(C)CC3)s2)cc1.Cl`: the melting point is 140 °C (dec.).

Consider `CN1CCN(c2ccccc2-c2ccc(C(=O)NCc3ccc(Cl)cc3)o2)CC1.Cl.O` (hydrate or solvate), for which the melting point is 110 °C (dec.).

`CN1CCN(c2ccc(F)cc2-c2ccc(C(=O)NCc3ccc(Cl)cc3)s2)CC1.O` (hydrate or solvate) showed a melting point of 175 to 176.5 °C. With `CN1CCN(c2ccccc2-c2ccc(C(=O)Nc3ccc(Cl)cc3)o2)CC1.Cl.O` (hydrate or solvate), the melting point was 145 °C (dec.).

`CN1CCN(c2ccccc2-c2ccc(C(=O)NCc3ccc(Cl)cc3)s2)CC1.Cl.O` (hydrate or solvate) had a melting point of 256 to 257 °C.

Take `CN1CCN(c2ccccc2-c2ccc(C(=O)NCc3ccccc3)s2)CC1.Cl.O.O` (hydrate or solvate): the melting point is 145 °C (dec.). For the molecule `CN1CCN(c2ccccc2-c2ccc(C(=O)NCc3ccc(F)cc3)s2)CC1.Cl.O` (hydrate or solvate), the melting point was in the range of 187 to 188 °C.
